Results: ChEMBL document CHEMBL5370655

How the values were obtained:
[1] = target: T1, Epidermal growth factor receptor (Homo sapiens, UniProt P00533, C797S/L858R/T790M)
[2] = Induction of cell cycle arrest in human H1975-TM cells assessed as accumulation at G2/M phase at 500 nM measured after 24 hrs by RNase A/propidium iodide staining based flow cytometric analysis (reference value: 17.6 %); format: functional
A-431 = test: Antiproliferative activity against human A-431 cells assessed as inhibition of cell growth measured after 72 hrs by CCK8 assay; format: functional, cell-based; conditions: A-431, 72 h
[3] = Induction of cell cycle arrest in human H1975-TM cells assessed as accumulation at G0/G1 phase at 500 nM measured after 24 hrs by RNase A/propidium iodide staining based flow cytometric analysis (reference value: 64.3 %); format: functional
NCI-H1975 = test: Antiproliferative activity against human NCI-H1975 cells assessed as inhibition of cell growth measured after 72 hrs by CCK8 assay; format: functional, cell-based; conditions: NCI-H1975, 72 h
[4] = Antitumor activity against human H1975-TM cells xenografted in BALB/c mouse assessed as tumor growth inhibition at 25 mg/kg, po measured after 25 days; format: functional; conditions: time 25 day
PC-9 [5] = test: Antiproliferative activity against human PC-9 cells assessed as inhibition of cell growth measured after 72 hrs by CCK8 assay; format: functional, cell-based; conditions: PC-9, 72 h
[6] = Induction of apoptosis in human H1975-TM cells assessed as apoptotic cells at 500 nM measured after 24 by Annexin V-FITC and propidium iodide staining based flow cytometric analysis (reference value: 7.08 %); format: functional; conditions: time 24 hrs
[7] = Induction of cell cycle arrest in human H1975-TM cells assessed as accumulation at S phase at 500 nM measured after 24 hrs by RNase A/propidium iodide staining based flow cytometric analysis (reference value: 18.1 %); format: functional
PC-9 [8] = format: functional, cell-based; conditions: Homo sapiens, PC-9, 72 h
[9] = target: T1, Epidermal growth factor receptor; remark: listed apart in the source
[10] = target: Epidermal growth factor receptor (Homo sapiens, UniProt P00533, L858R)
[11] = target: Epidermal growth factor receptor (Homo sapiens, UniProt P00533, C797S/EX19DEL/T790M)
[12] = target: Epidermal growth factor receptor (Homo sapiens, UniProt P00533)
Description: Inhibition of wild-type EGFR (unknown origin) using polyE4Y1 as substrate incubated for 5 mins with compound followed by substrate addition measured after 60 mins in presence of ATP by ADP-Glo reagent based assay

[13] = target: Epidermal growth factor receptor (Homo sapiens, UniProt P00533, L858R/T790M); test: Inhibition of EGFR L858R/T790M double mutant (unknown origin) using polyE4Y1 as substrate incubated for 5 mins with compound followed by substrate addition measured after 60 mins in presence of ATP by ADP-Glo reagent based assay
Chain of Epidermal growth factor receptor (Homo sapiens, UniProt P00533, L858R/T790M) (P00533 25-1210 T790M/L858R limits assumed): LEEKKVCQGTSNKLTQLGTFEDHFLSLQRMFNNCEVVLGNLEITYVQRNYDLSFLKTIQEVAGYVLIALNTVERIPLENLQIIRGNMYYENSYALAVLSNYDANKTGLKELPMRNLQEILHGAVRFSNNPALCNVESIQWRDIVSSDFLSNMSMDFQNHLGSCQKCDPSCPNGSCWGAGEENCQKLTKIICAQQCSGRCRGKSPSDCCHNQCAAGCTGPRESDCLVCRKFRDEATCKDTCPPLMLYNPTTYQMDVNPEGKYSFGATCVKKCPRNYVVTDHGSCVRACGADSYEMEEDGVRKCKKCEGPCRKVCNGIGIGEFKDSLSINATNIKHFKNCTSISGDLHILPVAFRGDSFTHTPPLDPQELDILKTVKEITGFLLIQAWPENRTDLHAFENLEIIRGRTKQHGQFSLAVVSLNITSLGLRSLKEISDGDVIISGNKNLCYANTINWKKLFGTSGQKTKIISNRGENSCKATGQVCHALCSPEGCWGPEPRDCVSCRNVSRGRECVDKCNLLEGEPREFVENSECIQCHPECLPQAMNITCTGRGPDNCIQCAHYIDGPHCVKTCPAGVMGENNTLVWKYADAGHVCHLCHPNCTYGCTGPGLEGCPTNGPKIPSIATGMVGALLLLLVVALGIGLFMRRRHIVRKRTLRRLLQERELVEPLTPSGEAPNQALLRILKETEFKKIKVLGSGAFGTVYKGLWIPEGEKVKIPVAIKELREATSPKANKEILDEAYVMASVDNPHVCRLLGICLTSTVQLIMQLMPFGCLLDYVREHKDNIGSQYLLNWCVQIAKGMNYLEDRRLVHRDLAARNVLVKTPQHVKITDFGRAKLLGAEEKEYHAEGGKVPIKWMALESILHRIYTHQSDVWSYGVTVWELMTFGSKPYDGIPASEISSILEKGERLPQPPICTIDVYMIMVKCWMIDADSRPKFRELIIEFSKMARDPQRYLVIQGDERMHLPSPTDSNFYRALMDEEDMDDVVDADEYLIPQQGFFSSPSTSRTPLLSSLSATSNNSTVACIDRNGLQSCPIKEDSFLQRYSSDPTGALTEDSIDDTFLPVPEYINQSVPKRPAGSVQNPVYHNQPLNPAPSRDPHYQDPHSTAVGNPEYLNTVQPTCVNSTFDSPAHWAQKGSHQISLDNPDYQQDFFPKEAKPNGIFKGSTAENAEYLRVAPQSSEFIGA

T1 sequence (P00533 25-1210 T790M/C797S/L858R limits assumed): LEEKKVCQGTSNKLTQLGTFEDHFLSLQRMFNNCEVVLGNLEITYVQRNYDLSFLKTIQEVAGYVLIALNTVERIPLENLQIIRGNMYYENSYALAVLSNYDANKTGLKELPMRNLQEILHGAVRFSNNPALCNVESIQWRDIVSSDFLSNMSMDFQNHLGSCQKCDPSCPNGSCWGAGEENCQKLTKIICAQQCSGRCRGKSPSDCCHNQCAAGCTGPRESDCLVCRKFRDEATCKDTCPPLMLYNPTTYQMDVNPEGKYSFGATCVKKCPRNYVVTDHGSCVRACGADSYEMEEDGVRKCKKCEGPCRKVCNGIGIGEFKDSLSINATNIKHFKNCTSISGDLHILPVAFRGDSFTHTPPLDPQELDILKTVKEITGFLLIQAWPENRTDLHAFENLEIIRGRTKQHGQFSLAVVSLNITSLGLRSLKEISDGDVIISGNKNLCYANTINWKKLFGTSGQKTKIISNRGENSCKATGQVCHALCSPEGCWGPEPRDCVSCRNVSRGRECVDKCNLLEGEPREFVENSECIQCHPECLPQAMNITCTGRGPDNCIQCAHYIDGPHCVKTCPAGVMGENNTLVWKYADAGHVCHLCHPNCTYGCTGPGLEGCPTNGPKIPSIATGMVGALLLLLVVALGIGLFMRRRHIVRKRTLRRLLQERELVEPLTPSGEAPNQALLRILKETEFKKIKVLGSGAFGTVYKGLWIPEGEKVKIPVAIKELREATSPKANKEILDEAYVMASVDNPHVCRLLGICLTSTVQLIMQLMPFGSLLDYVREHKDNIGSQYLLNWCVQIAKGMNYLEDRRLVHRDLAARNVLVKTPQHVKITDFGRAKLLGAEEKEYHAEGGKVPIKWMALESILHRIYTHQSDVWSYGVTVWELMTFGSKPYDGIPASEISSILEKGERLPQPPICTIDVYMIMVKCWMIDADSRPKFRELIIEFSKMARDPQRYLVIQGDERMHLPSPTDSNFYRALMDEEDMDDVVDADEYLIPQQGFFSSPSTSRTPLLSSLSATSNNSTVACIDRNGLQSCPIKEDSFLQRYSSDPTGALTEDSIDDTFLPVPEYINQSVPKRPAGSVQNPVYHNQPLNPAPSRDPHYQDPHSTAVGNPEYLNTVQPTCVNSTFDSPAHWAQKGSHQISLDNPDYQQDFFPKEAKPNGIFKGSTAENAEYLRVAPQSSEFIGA
Chain of Epidermal growth factor receptor (Homo sapiens, UniProt P00533, L858R) (P00533 25-1210 L858R limits assumed): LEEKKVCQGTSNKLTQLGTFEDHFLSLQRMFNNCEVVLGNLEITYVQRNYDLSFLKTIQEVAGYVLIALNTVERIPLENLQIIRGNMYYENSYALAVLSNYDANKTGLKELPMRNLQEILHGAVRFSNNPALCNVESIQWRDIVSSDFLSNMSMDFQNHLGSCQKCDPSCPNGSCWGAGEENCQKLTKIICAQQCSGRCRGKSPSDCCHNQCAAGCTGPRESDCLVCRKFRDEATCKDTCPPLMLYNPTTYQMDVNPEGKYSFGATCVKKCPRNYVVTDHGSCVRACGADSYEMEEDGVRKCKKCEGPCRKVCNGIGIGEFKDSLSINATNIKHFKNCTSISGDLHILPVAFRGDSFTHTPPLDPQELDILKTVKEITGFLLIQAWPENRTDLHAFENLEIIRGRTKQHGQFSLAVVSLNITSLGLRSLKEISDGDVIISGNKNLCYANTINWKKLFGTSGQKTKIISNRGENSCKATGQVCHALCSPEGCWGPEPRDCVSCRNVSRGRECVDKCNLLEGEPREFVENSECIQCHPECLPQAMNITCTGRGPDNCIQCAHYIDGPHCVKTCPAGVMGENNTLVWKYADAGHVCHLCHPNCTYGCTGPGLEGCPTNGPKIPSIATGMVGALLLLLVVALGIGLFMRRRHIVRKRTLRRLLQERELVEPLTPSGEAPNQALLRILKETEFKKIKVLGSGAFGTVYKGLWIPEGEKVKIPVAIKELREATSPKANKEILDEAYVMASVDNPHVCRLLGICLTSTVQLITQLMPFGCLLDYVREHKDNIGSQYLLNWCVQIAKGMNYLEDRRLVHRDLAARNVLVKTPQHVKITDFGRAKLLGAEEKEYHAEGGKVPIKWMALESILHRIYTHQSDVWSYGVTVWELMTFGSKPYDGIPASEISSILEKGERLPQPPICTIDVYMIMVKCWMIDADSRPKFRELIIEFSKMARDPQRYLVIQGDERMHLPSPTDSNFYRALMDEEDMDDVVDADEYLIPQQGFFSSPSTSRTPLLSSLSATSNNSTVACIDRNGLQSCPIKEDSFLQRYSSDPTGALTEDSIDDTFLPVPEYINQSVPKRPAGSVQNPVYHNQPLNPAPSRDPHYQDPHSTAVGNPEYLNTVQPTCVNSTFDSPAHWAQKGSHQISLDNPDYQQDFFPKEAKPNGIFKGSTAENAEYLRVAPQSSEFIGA
Chain of Epidermal growth factor receptor (Homo sapiens, UniProt P00533, C797S/EX19DEL/T790M) (P00533 whole entry, looked up, stated change not applied): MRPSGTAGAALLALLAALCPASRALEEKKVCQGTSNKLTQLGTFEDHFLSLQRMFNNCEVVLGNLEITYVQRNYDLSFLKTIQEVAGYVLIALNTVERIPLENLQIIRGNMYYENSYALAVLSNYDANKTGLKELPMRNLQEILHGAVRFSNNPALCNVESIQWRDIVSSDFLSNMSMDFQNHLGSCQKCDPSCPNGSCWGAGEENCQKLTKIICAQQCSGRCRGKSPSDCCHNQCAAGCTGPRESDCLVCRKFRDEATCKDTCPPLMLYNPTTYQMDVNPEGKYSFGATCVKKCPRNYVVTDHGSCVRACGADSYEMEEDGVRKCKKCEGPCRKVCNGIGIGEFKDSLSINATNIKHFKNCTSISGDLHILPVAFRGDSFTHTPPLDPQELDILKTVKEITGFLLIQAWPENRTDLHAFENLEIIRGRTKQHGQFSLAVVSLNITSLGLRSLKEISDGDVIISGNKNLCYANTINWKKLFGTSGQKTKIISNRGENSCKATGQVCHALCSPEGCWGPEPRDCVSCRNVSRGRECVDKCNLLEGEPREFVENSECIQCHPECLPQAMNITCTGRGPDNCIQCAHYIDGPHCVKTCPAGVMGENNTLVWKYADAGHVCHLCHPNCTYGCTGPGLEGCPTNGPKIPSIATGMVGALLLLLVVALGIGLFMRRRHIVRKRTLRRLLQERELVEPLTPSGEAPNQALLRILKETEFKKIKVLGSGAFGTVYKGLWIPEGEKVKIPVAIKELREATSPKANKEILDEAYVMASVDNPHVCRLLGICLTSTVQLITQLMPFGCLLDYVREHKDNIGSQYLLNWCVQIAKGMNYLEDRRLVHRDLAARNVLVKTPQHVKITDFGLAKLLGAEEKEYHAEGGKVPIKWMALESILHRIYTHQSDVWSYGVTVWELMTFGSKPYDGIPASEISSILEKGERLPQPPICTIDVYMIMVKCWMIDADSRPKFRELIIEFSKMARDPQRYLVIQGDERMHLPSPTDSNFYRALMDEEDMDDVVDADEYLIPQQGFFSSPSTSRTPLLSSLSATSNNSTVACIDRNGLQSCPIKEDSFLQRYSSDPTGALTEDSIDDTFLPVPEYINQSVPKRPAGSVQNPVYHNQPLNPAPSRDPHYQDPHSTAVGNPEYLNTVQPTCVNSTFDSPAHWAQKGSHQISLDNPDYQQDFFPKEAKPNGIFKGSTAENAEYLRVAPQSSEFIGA

Compound | IC50 [1] | further results
CC(C)c1nc(-c2ccc(F)cc2)c(-c2ccnc(Nc3ccc4c(ccn4CCN(C)C)c3)n2)s1 | 20 nM | –
CNc1nc(-c2ccc(F)cc2)c(-c2ccnc(Nc3ccc4c(ccn4CCN(C)C)c3)n2)s1 | 19 nM | –
CCS(=O)(=O)Nc1nc(-c2ccc(F)cc2)c(-c2ccnc(Nc3ccc(C4CCN(C)CC4)cc3)n2)s1 | 2.1 nM | –
CCS(=O)(=O)Nc1nc(-c2ccc(F)cc2)c(-c2ccnc(Nc3ccc(N4CCN(C(C)C)CC4)cc3)n2)s1 | 3.7 nM | –
CN(C)CCn1ccc2cc(Nc3nccc(-n4ccc(-c5ccc(F)cc5)n4)n3)ccc21 | 409 nM | –
CCS(=O)(=O)N1CCC(c2nc(-c3ccc(F)cc3)c(-c3ccnc(Nc4ccc(N5CCN(C(C)C)CC5)cc4)n3)s2)CC1 | 49 nM | –
CCS(=O)(=O)Nc1nc(-c2ccc(F)cc2)c(-c2ccnc(Nc3cc(-c4cnn(C)c4)c(N4CCOCC4)cc3OC)n2)s1 | 70.1 nM | –
CCS(=O)(=O)Nc1nc(-c2ccc(F)cc2)c(-c2ccnc(Nc3ccc(N4CCN(C)CC4)cc3OC)n2)s1 | 2.5 nM | –
CCS(=O)(=O)Nc1nc(-c2ccc(F)cc2)c(-c2ccnc(Nc3ccc4c(ccn4CCN4CCOCC4)c3)n2)s1 | 6.3 nM | –
CCN(CC)CCn1ccc2cc(Nc3nccc(-c4sc(C5CCN(S(=O)(=O)CC)CC5)nc4-c4ccc(F)cc4)n3)ccc21 | 34 nM | –
CCS(=O)(=O)Nc1nc(-c2ccc(F)cc2)c(-c2ccnc(Nc3ccc(N4CCN(C)CC4)c(C)c3)n2)s1 | 3.6 nM | –
CN(C)CCn1ccc2cc(Nc3nccc(-c4sc(NS(=O)(=O)C5CCCCC5)nc4-c4ccc(F)cc4)n3)ccc21 | 20 nM | –
CCS(=O)(=O)N1CCC(c2nc(-c3ccc(F)cc3)c(-c3ccnc(Nc4ccc(N5CCOCC5)cc4OC)n3)s2)CC1 | 71 nM | –
COc1cc(N2CCC(N3CCN(C)CC3)CC2)c(C)cc1Nc1nccc(-n2ccnc2-c2ccc(F)cc2)n1 | 28 nM | –
CN(C)CCn1ccc2cc(Nc3nccc(-c4sc(N)nc4-c4ccc(F)cc4)n3)ccc21 | 2.1 nM | –
Cc1nc(-c2ccc(F)cc2)c(-c2ccnc(Nc3ccc4c(ccn4CCN(C)C)c3)n2)s1 | 11 nM | –
CCN1CCN(c2ccc(Nc3nccc(-c4sc(NS(=O)(=O)CC)nc4-c4ccc(F)cc4)n3)cc2)CC1 | 2.2 nM | –
COc1cc(N2CCC(N3CCN(C)CC3)CC2)ccc1Nc1ncc(Cl)c(Nc2ccccc2P(C)(C)=O)n1 [BRIGATINIB] | – | Activity [2]: 11.1%; IC50 (A-431): 510 nM; Activity [3]: 78.4%; IC50 (NCI-H1975): 320 nM; TGI [4]: 59.8%; IC50 (PC-9 [5]): 87 nM; Activity [6]: 11.58%; Activity [7]: 10.5%; IC50 (PC-9 [8]): 390 nM
CN(C)CCn1ccc2cc(Nc3nccc(-c4sc(N5CCOCC5)nc4-c4ccc(F)cc4)n3)ccc21 | 26 nM | –
CN(C)CCn1ccc2cc(Nc3nccc(-c4sc(NS(=O)(=O)c5ccc(F)cc5)nc4-c4ccc(F)cc4)n3)ccc21 | 15 nM | –
CCS(=O)(=O)Nc1nc(-c2ccc(F)cc2)c(-c2ccnc(Nc3ccc4c(ccn4CCN(C)C)c3)n2)s1 | 0.9 nM | –
CN(C)CCn1ccc2cc(Nc3nccc(-n4ccnc4-c4cccc(F)c4)n3)ccc21 | 90 nM | –

Compound | IC50 [1] | further results
CN(C)CCn1ccc2cc(Nc3nccc(-n4ccnc4-c4ccc(C(F)(F)F)cc4)n3)ccc21 | > 1000 nM | –
CCS(=O)(=O)N1CCC(c2nc(-c3ccc(F)cc3)c(-c3ccnc(Nc4ccc(N5CCOCC5)c(F)c4)n3)s2)CC1 | 77 nM | –
CCS(=O)(=O)N1CCC(c2nc(-c3ccc(F)cc3)c(-c3ccnc(Nc4ccc(N5CCN(C)CC5)cc4OC)n3)s2)CC1 | 71 nM | –
CN(C)CCn1ccc2cc(Nc3nccc(-c4sc(NS(C)(=O)=O)nc4-c4ccc(F)cc4)n3)ccc21 | 2.5 nM | –
C=CC(=O)Nc1cc(Nc2nccc(-c3cn(C)c4ccccc34)n2)c(OC)cc1N(C)CCN(C)C [OSIMERTINIB] | – | IC50 (A-431): […]; IC50 (NCI-H1975): […]; IC50 (PC-9 [5]): 5 nM; IC50 (PC-9 [8]): 2200 nM
CN1CCN(c2ccc(Nc3nccc(-n4ccnc4-c4ccc(F)cc4)n3)cc2)CC1 | 63 nM | –
CC(=O)Nc1nc(-c2ccc(F)cc2)c(-c2ccnc(Nc3ccc4c(ccn4CCN(C)C)c3)n2)s1 | 3.2 nM | IC50 [9]: 159 nM; IC50 [10]: 2.1 nM; IC50 (A-431): 450 nM; IC50 (NCI-H1975): 340 nM; IC50 [11]: 14 nM; IC50 (PC-9 [5]): 20 nM; IC50 [12]: 66 nM; IC50 (PC-9 [8]): 8 nM; IC50 [13]: 4.9 nM
CCS(=O)(=O)N1CCC(c2nc(-c3ccc(F)cc3)c(-c3ccnc(Nc4ccc(N5CCOCC5)cc4)n3)s2)CC1 | 58 nM | –
CCN1CCN(c2ccc(Nc3nccc(-c4sc(C5CCN(S(=O)(=O)CC)CC5)nc4-c4ccc(F)cc4)n3)cc2)CC1 | 26 nM | –
CCS(=O)(=O)N1CCC(c2nc(-c3ccc(F)cc3)c(-c3ccnc(Nc4ccc(C5CCN(C)CC5)cc4)n3)s2)CC1 | 15 nM | –
CCS(=O)(=O)N1CCC(c2nc(-c3ccc(F)cc3)c(-c3ccnc(Nc4ccc5c(ccn5CCN5CCOCC5)c4)n3)s2)CC1 | 71 nM | –
CCS(=O)(=O)Nc1nc(-c2ccc(F)cc2)c(-c2ccnc(Nc3ccc(N4CCOCC4)cc3)n2)s1 | 37 nM | –
CCS(=O)(=O)Nc1nc(-c2ccc(F)cc2)c(-c2ccnc(Nc3ccc(N4CCOCC4)c(F)c3)n2)s1 | 4.1 nM | –
COc1cc(N2CCN(C)CC2)ccc1Nc1nccc(-n2ccnc2-c2ccc(F)cc2)n1 | 127 nM | –
COc1ccc(-c2nccn2-c2ccnc(Nc3ccc4c(ccn4CCN(C)C)c3)n2)cc1 | 289 nM | –
CCS(=O)(=O)N1CCC(c2nc(-c3ccc(F)cc3)c(-c3ccnc(Nc4ccc(N5CCN(C)CC5)c(C)c4)n3)s2)CC1 | 36 nM | IC50 [9]: 289 nM; IC50 [10]: 5.8 nM; IC50 (A-431): 610 nM; IC50 (NCI-H1975): 100 nM; IC50 [11]: 70 nM; IC50 (PC-9 [5]): 35 nM; IC50 [12]: 67 nM; IC50 (PC-9 [8]): 40 nM; IC50 [13]: 17 nM
CN(C)CCn1ccc2cc(Nc3nccc(-n4ccnc4-c4ccc(Cl)cc4)n3)ccc21 | 86 nM | –
CC(C)S(=O)(=O)Nc1nc(-c2ccc(F)cc2)c(-c2ccnc(Nc3ccc4c(ccn4CCN(C)C)c3)n2)s1 | 3.4 nM | –
CN(C)CCn1ccc2cc(Nc3nccc(-n4ccnc4-c4ccc(F)cc4)n3)ccc21 | 17 nM | –
CCS(=O)(=O)N1CCC(c2nc(-c3ccc(F)cc3)c(-c3ccnc(Nc4ccc(N5CCN(C)CC5)cc4)n3)s2)CC1 | 18 nM | IC50 [9]: 166 nM; IC50 [10]: 2.4 nM; IC50 (A-431): 1200 nM; IC50 (NCI-H1975): 190 nM; IC50 [11]: 30 nM; IC50 (PC-9 [5]): 6 nM; IC50 [12]: 52 nM; IC50 (PC-9 [8]): 80 nM; IC50 [13]: 8 nM
CCS(=O)(=O)Nc1nc(-c2ccc(F)cc2)c(-c2ccnc(Nc3ccc(N4CCN(C)CC4)cc3)n2)s1 | 1.8 nM | –
CCCCS(=O)(=O)Nc1nc(-c2ccc(F)cc2)c(-c2ccnc(Nc3ccc4c(ccn4CCN(C)C)c3)n2)s1 | 4.3 nM | –
